Values joined by “and” are separate entries in the source; they are usually repeats but may differ in a detail not shown here. Identical values can stand only once.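 Protocol summary: plate cells (96-well), add compound at 5 concentrations, incubate 48 h, interpolate endpoints linearly. The concentration for 50% growth inhibition is given as GI50. TGI is the concentration that stops growth completely.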

Holding throughout (experiment): NCI tumour cell line growth inhibition, 48 h
Experiment [1] deals with SNB-75 CNS.
Experiment [2] relates to SN12C renal.
For experiment [3], the system named is HCT-15 colon.
Experiment [4] concerns OVCAR-3 ovarian.
In experiment [5] the test system is MDA-MB-231 breast.
Experiment [6] concerns M14 melanoma.
The test system of experiment [7] is MDA-MB-435.
In experiment [8] the test system is MCF7 breast.
Experiment [9] concerns SW-620 colon.
Experiment [10] deals with SK-MEL-2 melanoma.

Turning to `Cn1c2c(c3c(Cl)nncc31)Cc1ccccc1-2`, the GI50 in [1] was 76.8 µM; in [2], 20.8 µM; in experiment [3], 22.2 µM; in [4], 31 µM; in [5], 21.2 µM; in experiment [6], 28.1 µM. In addition, the GI50 was 29.7 µM in experiment [7], 9.03 µM in experiment [8] and 17.9 µM in experiment [9]. Also, the TGI in [1] was > 100 µM; in experiment [2], 81.7 µM; in experiment [3], > 100 µM; in experiment [4], > 100 µM; in experiment [5], 73.5 µM; in experiment [6], > 100 µM. Further, the TGI in [7], in experiment [8] and in [9] was > 100 µM in each case.
As to `CC1NC(=O)C2=C1C(=O)NC(=O)C2` (stereo not given), the GI50 in experiment [2], in experiment [3], in experiment [4], in [5], in [6] and in experiment [10] was > 100 µM throughout. The GI50 in experiment [7], in [8] and in experiment [9] was > 100 µM in each case. In addition, the TGI in experiment [2], in [3], in experiment [4], in [5], in experiment [6] and in [10] was > 100 µM each time. The TGI in [7], in experiment [8] and in experiment [9] was > 100 µM each time.
As for `O=C(O)C1[O][Sb][O]C(C(=O)O)C1O` (stereo not given), the GI50 in [1], in experiment [2], in experiment [3], in [4], in [5] and in experiment [6] was > 100 µM throughout. The GI50 in experiment [10], in experiment [7] and in experiment [9] was > 100 µM throughout. Also, the TGI in experiment [1], in [2], in [3], in experiment [4], in experiment [5] and in experiment [6] was > 100 µM each time. In addition, the TGI in experiment [10], in experiment [7] and in experiment [9] was > 100 µM throughout.
Consider `C/C=C1/CC(C)C(C)(O)C(=O)OCC2C(O)CN3CCC(OC1=O)C23` (stereo not given), for which the TGI in [1], in [2], in experiment [3], in [5], in experiment [6] and in experiment [10] was > 100 µM throughout. The TGI in [7], in experiment [8] and in [9] was > 100 µM in each case.
Turning to `C=CCC(N[C@@H](CO)c1ccccc1)c1cn(C(=O)OCC)c2ccccc12` (stereo not given in full), the GI50 in experiment [2] is 21.4 µM; in [3], 18.9 µM; in [4] it was 15.8 µM; in [5] it was 20.6 µM; in experiment [6], 18.1 µM; in [10], 33.7 µM. Moreover, the GI50 in experiment [7] is 22.7 µM; in [8], 29.4 µM; in experiment [9], 28.6 µM. In addition, the TGI in experiment [2] is 39.2 µM; in [3], 40.8 µM; in [4] it was 31.7 µM; in experiment [5], 43.5 µM; in experiment [6], 34.4 µM; in experiment [10], > 100 µM. Besides, the TGI in experiment [7] is 55.9 µM; in experiment [8] it was > 100 µM; in [9], > 100 µM.
As to `COc1ccc([C@@]23Oc4cc(OC)cc(OC)c4[C@]2(O)[C@H](O)[C@H](C(N)=O)[C@H]3c2ccccc2)cc1`, the GI50 in experiment [1] is < 0.01 µM; in [2], < 0.0113 µM; in experiment [3], 0.0177 µM; in experiment [4], < 0.0129 µM; in experiment [5], 0.0175 µM; in experiment [10], < 0.0147 µM. Further, the TGI was 0.119 µM in experiment [1]; 0.0751 µM in experiment [2]; 0.33 µM and 0.229 µM in [3]; 0.101 µM and 0.284 µM in [4]; 0.126 µM and 0.0685 µM in experiment [5]; 0.0233 µM and < 0.01 µM in experiment [6]. Further, the TGI in experiment [10] is 0.0556 µM and 0.0738 µM; in experiment [7], 0.0793 µM and 0.631 µM; in experiment [8] it was 0.112 µM.
With `O=[N+]([O-])c1cc([N+](=O)[O-])c(Nn2c3ccccc3c3ccccc32)c([N+](=O)[O-])c1`, the GI50 in experiment [1] is 0.204 µM; in [2] it was 0.322 µM; in [3], 0.377 µM; in experiment [4] it was 0.352 µM; in experiment [6] it was 0.381 µM; in [10] it was 0.267 µM. Further, the GI50 is 0.348 µM in experiment [7], 0.292 µM in experiment [8] and 0.366 µM in [9]. In addition, the TGI in [1] is 0.92 µM; in [2], 9.42 µM and 6.72 µM; in [3], 11.8 µM and 3.97 µM; in [4], > 33.5 µM; in experiment [10], 0.702 µM; in experiment [7], 7.16 µM and 2.27 µM. The TGI was 5.86 µM in experiment [8]; 23.7 µM and 3.56 µM in experiment [9].
Take `CC1=CC(C)(C)NN1C1=NS(=O)(=O)c2ccccc2N1C`: the TGI in [2], in [3], in experiment [4], in experiment [5], in experiment [6] and in experiment [10] was > 100 µM each time. Also, the TGI in [7], in experiment [8] and in experiment [9] was > 100 µM in each case.
As for `CC(C)COc1nc2c(c(=O)n(C)c(=O)n2C)n1C`, the GI50 in [1] is 47 µM; in [2], > 100 µM; in experiment [3] it was > 100 µM; in experiment [4] it was > 100 µM; in experiment [5] it was > 100 µM; in [6], > 100 µM. Moreover, the GI50 in experiment [7], in experiment [8] and in [9] was > 100 µM in each case. The TGI in experiment [1], in experiment [2], in experiment [3], in experiment [4], in [5] and in [6] was > 100 µM each time. Also, the TGI in [7], in experiment [8] and in experiment [9] was > 100 µM in each case.
